Laboratory results taken from PubChem BioAssay (NCI).
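Results reflect a 48-hour exposure of cells in 96-well plates to compound at five concentrations. The concentration for 50% growth inhibition is given as GI50. At the TGI there is no net growth.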

Assays:
Experiment in all cases: NCI tumour cell line growth inhibition, 48 h
MALME-3M melanoma = system: MALME-3M melanoma
SW-620 colon = system: SW-620 colon
A549 NSCLC = system: A549 NSCLC
SK-MEL-5 melanoma = system: SK-MEL-5 melanoma
SF-295 CNS = system: SF-295 CNS
SF-268 CNS = system: SF-268 CNS
786-0 renal = system: 786-0 renal
K-562 leukemia = system: K-562 leukemia

Row | SMILES | TGI (MALME-3M melanoma) [µM] | TGI (SW-620 colon) [µM] | TGI (A549 NSCLC) [µM] | TGI (SK-MEL-5 melanoma) [µM] | TGI (SF-295 CNS) [µM] | TGI (SF-268 CNS) [µM] | TGI (786-0 renal) [µM] | TGI (K-562 leukemia) [µM] | GI50 (MALME-3M melanoma) [µM] | GI50 (SW-620 colon) [µM] | GI50 (A549 NSCLC) [µM] | GI50 (SK-MEL-5 melanoma) [µM] | GI50 (K-562 leukemia) [µM] | GI50 (SF-295 CNS) [µM] | GI50 (SF-268 CNS) [µM]
1 | Cn1c(=O)c2sc3cc4c(cc3c2c2ccccc21)sc1c(=O)n(C)c2ccccc2c14 | > 100 | > 100 | > 100 | > 100 | 42.6 | > 100 | > 100 |  |  |  |  |  |  |  | 
2 | O=C(NC/C=C/Br)NC1CCNc2ccccc21 (stereo not drawn) | 77.9 | > 100 | > 100 | 37.7 | > 100 | > 100 | 81.9 | > 100 |  |  |  |  |  |  | 
3 | CN(C)c1ccc(/C=C2\C[C@H]3[C@@H]4CCc5cc(O)ccc5[C@H]4CC[C@]3(C)C2=O)cc1 | > 100 | > 100 | > 100 | > 100 | > 100 | 61 |  | > 100 |  |  |  |  |  |  | 
4 | CCC1CCC2c3c([nH]c4ccccc34)C3C(=O)N(c4ccc(OC)cc4)C(=O)C3C2C1 (stereo not drawn) |  | 82.4 | 59.7 | > 100 | 68.1 | > 100 | > 100 | 60.8 |  |  |  |  |  |  | 
5 | Cc1cccc(C(O)c2cccnc2)c1O (stereo not drawn) | > 100 | > 100 | > 100 | > 100 | > 100 | > 100 |  | > 100 |  |  |  |  |  |  | 
6 | CCOC(=O)c1c(-c2ccc(OC)c(O)c2)c(C#N)c(=S)n(C2OC(CO)C(O)C(O)C2O)c1-c1ccccc1 (stereo not drawn) |  | > 100 | > 100 | > 100 | > 100 | > 100 | > 100 | > 100 |  |  |  |  |  |  | 
7 | C=C1C(=O)O[C@H]2[C@H]([C@H](C)CCCC(C)=O)O[C@H]([C@@]3(C)CCC(=O)O3)C[C@@H]12 | 54.3 | > 100 | > 100 | > 100 | > 100 | 9.34 | > 100 | > 100 |  |  |  |  |  |  | 
8 | CC1(C)CC(=O)C(=CN2C(=O)CNC2=S)C(=O)C1 |  | > 100 | > 100 | > 100 | > 100 | > 100 | > 100 |  |  |  |  |  |  |  | 
9 | C=CCn1c(=O)c2ccccc2[n+]2c(-c3cccc([N+](=O)[O-])c3)csc12 | > 100 | > 100 | > 100 | 36.5 | > 100 | > 100 | > 100 | > 100 |  |  |  |  |  |  | 
10 | Cc1cccc2c1C(=O)[C@@](C)([C@]1(C)Nc3cccc(C)c3C1=O)N2 | > 100 | > 100 | > 100 | > 100 | > 100 | > 100 | > 100 | > 100 |  |  |  |  |  |  | 
11 | N#Cc1c(C#N)c(-c2ccccc2)n(/N=C\c2ccccc2)c1N | > 100 | > 100 | 71.4 | 32.8 | 65.8 | > 100 | > 100 | > 100 |  |  |  |  |  |  | 
12 | COc1cc(-c2[o+]c3cc(O)cc(OC4OC(CO)C(O)C(O)C4O)c3cc2OC2OC(CO)C(O)C(O)C2O)cc(OC)c1O (stereo not drawn) | > 100 | > 100 | > 100 | > 100 | > 100 | > 100 | > 100 | > 100 |  |  |  |  |  |  | 
13 | COC(=O)C(C(=O)OC)C1CC(=O)c2c(Br)sc(Br)c21 (stereo not drawn) | 40 | 26.4 | 68.8 | 28.3 | 60.9 | 52.8 | > 100 | 53.5 |  |  |  |  |  |  | 
14 | O=C(NCc1cccnc1)C(=O)NCc1cccnc1 | > 100 | > 100 | > 100 | > 100 | > 100 | > 100 | > 100 | > 100 |  |  |  |  |  |  | 
15 | O=C1C(=Cc2ccccc2[N+](=O)[O-])N=C(c2ccccc2)N1n1c(-c2ccccc2)nc2ccccc2c1=O | 91.7 | > 100 | > 100 | > 100 | > 100 | > 100 | > 100 | > 100 |  |  |  |  |  |  | 
16 | Cc1cc(C)c2c(c1)CC1(Cc3c(C)cc(C)cc3C1=O)C2=O (stereo not drawn) | > 100 | > 100 | > 100 | > 100 | > 100 | > 100 | > 100 | > 100 |  |  |  |  |  |  | 
17 | CCOC(=O)CCC(C(=O)OCC)n1nnc2cc(Nc3c(C)[n+]([O-])c4ccc(Cl)cc4[n+]3[O-])ccc21 (stereo not drawn) | > 100 | > 100 | > 100 | > 100 | > 100 | > 100 | > 100 | > 100 |  |  |  |  |  |  | 
18 | O=C(Nc1nc(C23CC4CC(CC(C4)C2)C3)cs1)c1cc2cc([N+](=O)[O-])ccc2oc1=O | > 100 | > 100 | > 100 | 96.9 | > 100 | > 100 | 45.2 | > 100 |  |  |  |  |  |  | 
19 | CC1(C)CC2(C)OC(=N)C1(C#N)C2(C#N)C#N (stereo not drawn) | 31.4 | 11.1 | 60 | 21 | 31.5 | 33.8 | 16.7 | 33.5 |  |  |  |  |  |  | 

Row | SMILES | TGI (MALME-3M melanoma) [µM] | TGI (SW-620 colon) [µM] | TGI (A549 NSCLC) [µM] | TGI (SK-MEL-5 melanoma) [µM] | TGI (SF-295 CNS) [µM] | TGI (SF-268 CNS) [µM] | TGI (786-0 renal) [µM] | TGI (K-562 leukemia) [µM] | GI50 (MALME-3M melanoma) [µM] | GI50 (SW-620 colon) [µM] | GI50 (A549 NSCLC) [µM] | GI50 (SK-MEL-5 melanoma) [µM] | GI50 (K-562 leukemia) [µM] | GI50 (SF-295 CNS) [µM] | GI50 (SF-268 CNS) [µM]
20 | COC(=O)C1[C@H](C(=O)OC)C1(Br)CBr (stereo partly drawn) |  | > 100 | > 100 | > 100 | > 100 | > 100 | > 100 | > 100 |  |  |  |  |  |  | 
21 | C=C1C(=O)O[C@H]2C/C(C=O)=C\[C@H]3O[C@H]3/C(COC(=O)C(C)C)=C/CC12 (stereo partly drawn) | 24.2 | 6.87 | 37.3 | 22.2 | 75.5 |  | 10.7 | 10.4 |  |  |  |  |  |  | 
22 | c1ccc(CNc2ncnc3n[nH]nc23)cc1 | > 100 | > 100 | > 100 | > 100 | > 100 |  | > 100 | > 100 |  |  |  |  |  |  | 
23 | COC(=O)[C@@H]1O[C@]12[C@@H](CO[Si](C)(C)C(C)(C)C)O[C@@H](n1cc(C)c(=O)[nH]c1=O)[C@@H]2O[Si](C)(C)C(C)(C)C | 43.4 | 27.9 | 64 | 38.5 | 49.7 | 38 |  | 40.2 |  |  |  |  |  |  | 
24 | C=C(C(=O)OC)[C@H]1CC/C(C)=C/CC/C(C)=C/CC[C@@]2(C)O[C@@H]2C1 | 63.3 | 37.2 | 37.4 | 22 | 29.6 |  | 29.2 | 25.7 |  |  |  |  |  |  | 
25 | CN(C)C=Nc1nncc2n[nH]nc12 |  | > 100 | > 100 | > 100 | > 100 | > 100 | > 100 | > 100 |  |  |  |  |  |  | 
26 | COc1ccccc1N1C(=O)/C(=C\c2cccc(Oc3ccccc3)c2)S(=O)(=O)C1c1ccccc1 (stereo not drawn) | > 100 | > 100 | > 100 | 53.7 | > 100 |  | > 100 | > 100 |  |  |  |  |  |  | 
27 | CC1(C)Oc2ccc3c(=O)c4ccccc4oc3c2C1C(=O)O (stereo not drawn) | > 100 |  | > 100 | > 100 | > 100 | > 100 | > 100 | > 100 |  |  |  |  |  |  | 
28 | CCOC(=O)N1C(=S)C(C(=O)OC)(C(=O)OC)N=C1C |  | > 100 | > 100 | > 100 | > 100 |  | > 100 | > 100 |  |  |  |  |  |  | 
29 | COc1cc(S(=O)(=O)N/N=C/c2cc(Br)c(O)c(OC)c2)c(OC)cc1NC(C)=O |  | > 100 | > 100 | > 100 | > 100 |  | 66.5 | > 100 |  |  |  |  |  |  | 
30 | Cc1ccc(S(=O)(=O)N2CCN(CCO)CCN(S(=O)(=O)c3ccc(C)cc3)CCN(CCO)CC2)cc1 |  | > 100 | 57 | 27.3 | > 100 | > 100 | 67 | 35.3 |  |  |  |  |  |  | 
31 | CC(C)CC(NC(=O)C(COc1ccc([N+](=O)[O-])cc1)Cc1ccccc1)C(=O)Nc1ccccc1 (stereo not drawn) | 18 | > 100 | 69.2 | > 100 | 26.2 |  | 29.5 | > 100 |  |  |  |  |  |  | 
32 | Cc1ccc2cnc(N)c(C#Cc3cncc(C(=O)Nc4ccc(CN5CCN(C)CC5)c(C(F)(F)F)c4)c3)c2c1 | 0.62 | 0.54 | 1.19 | 1.51 | 1.57 | 1.27 |  | 0.619 | 0.145 | 0.131 | 0.485 | 0.813 | 0.005 | 0.828 | 0.479
33 | CCCCCCCCCCCCCCCCNc1ccn(C2CC(OP(=O)(O)OCC3OC(n4cc(CC)c(=O)[nH]c4=O)CC3O)C(CO)O2)c(=O)n1 (stereo not drawn) |  | 65.4 | 55.2 |  | 34.5 | 33.5 | > 100 | 44.9 |  |  |  |  |  |  | 
34 | O=C(O)CCCc1ccc2c(c1)CC1(C2)Cc2ccc(CCCC(=O)O)cc2C1 | > 100 |  | > 100 | > 100 | > 100 |  | > 100 | > 100 |  |  |  |  |  |  | 
35 | COc1cccc(C2CC(=O)c3cccn32)c1 (stereo not drawn) |  | > 100 | > 100 |  | > 100 | > 100 | > 100 | > 100 |  |  |  |  |  |  | 
36 | CCOC(=O)C1=C(C)N(c2ccc(C)cc2)C2(O)C=CC(=O)C3=C(O)c4ccccc4C(=O)C312 (stereo not drawn) | 43.1 | 61.1 | > 100 | 42.1 | > 100 | > 100 | > 100 |  |  |  |  |  |  |  | 
37 | O=C(NCCCCNCCCNC(=O)OCc1ccccc1)OCc1ccccc1 |  | > 100 | > 100 | 32.5 | 51.5 | > 100 | 55.5 | 80.7 |  |  |  |  |  |  | 
